Assay in all cases: Bliss interaction score (quartile over a dose matrix) (fitness difference); higher = more antagonism (negative = synergy)
The subject of one assay is B. subtilis 168. The gist of the method:
(§1)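 Quartiles of the Bliss score were taken over technical, biological and donor/recipient replicates. That score is observed fitness minus the product of the single-drug fitness values, which were inferred from combination data. Fitness itself is OD595 at entry into stationary phase divided by the plate's robust no-drug mean, with a cap at 1.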

The next assay concerns S. aureus DSM 20231. An outline of the steps:
as §1

In a further assay the test system is S. aureus Newman. An outline of the steps:
as §1

A further assay relates to S. pneumoniae D39V. An outline of the steps: as §1

SMILES strings stand for the structures.
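Note: first quartile when negative (synergy) and third quartile when positive (antagonism).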

On to `N[C@@H]1CONC1=O` [CycloserineD] + Cc1ncc([N+](=O)[O-])n1CCO [Metronidazole], for which the Bliss interaction score was -0.0606 in the assay with B. subtilis 168, 0.0317 with S. aureus DSM 20231, 0.0557 in the assay with S. aureus Newman and -0.0766 in the assay with S. pneumoniae D39V.

Turning to `CC(=O)OC[C@H]1O[C@@H]([S-])[C@H](OC(C)=O)[C@@H](OC(C)=O)[C@@H]1OC(C)=O.CCP(CC)CC.[Au+]` [Auranofin] + CO[C@@]12[C@H](COC(N)=O)C3=C(C(=O)C(C)=C(N)C3=O)N1C[C@@H]1N[C@@H]12 [MitomycinC], the Bliss interaction score was 0.0315 with B. subtilis 168, -0.0435 with S. aureus DSM 20231, 0.0961 with S. aureus Newman and -0.126 in the assay with S. pneumoniae D39V.

Consider `N[C@@H]1CONC1=O` [CycloserineD] + C[C@@H]1O[C@@H]1P(=O)(O)O [Fosfomycin], for which the Bliss interaction score in the assay with B. subtilis 168 is -0.046; with S. aureus DSM 20231, -0.0611; in the assay on S. aureus Newman, -0.033; with S. pneumoniae D39V, 0.0808.

For `CC[C@H]1OC(=O)[C@H](C)[C@@H](O[C@H]2C[C@@](C)(OC)[C@@H](O)[C@H](C)O2)[C@H](C)[C@@H](O[C@@H]2O[C@H](C)C[C@H](N(C)C)[C@H]2O)[C@](C)(OC)C[C@@H](C)C(=O)[C@H](C)[C@@H](O)[C@]1(C)O` [Clarithromycin] + CCC[C@@H]1C[C@@H](C(=O)N[C@@H]([C@H]2O[C@H](SC)[C@H](O)[C@@H](O)[C@H]2O)[C@H](C)Cl)N(C)C1 [Clindamycin], the Bliss interaction score in the assay with B. subtilis 168 was 0.0458; in the assay with S. aureus DSM 20231 it was -0.0458; in the assay with S. aureus Newman it was -0.066; in the assay with S. pneumoniae D39V it was 0.0678.

With `CCC[C@@H]1C[C@@H](C(=O)N[C@@H]([C@H]2O[C@H](SC)[C@H](O)[C@@H](O)[C@H]2O)[C@H](C)Cl)N(C)C1` [Clindamycin] + CN(C)[C@@H]1C(O)=C(C(N)=O)C(=O)[C@@]2(O)C(O)=C3C(=O)c4c(O)ccc(Cl)c4[C@@](C)(O)[C@H]3C[C@@H]12 [Clortetracycline], the Bliss interaction score was -0.212 in the assay on B. subtilis 168, -0.0617 with S. aureus DSM 20231, -0.191 in the assay on S. aureus Newman and -0.0954 with S. pneumoniae D39V.

Take `CC(=O)OC[C@H]1O[C@@H]([S-])[C@H](OC(C)=O)[C@@H](OC(C)=O)[C@@H]1OC(C)=O.CCP(CC)CC.[Au+]` [Auranofin] + COc1cc(Cc2cnc(N)nc2N)cc(OC)c1OC [Trimethoprim]: the Bliss interaction score with B. subtilis 168 is -0.0454; in the assay with S. aureus DSM 20231, 0.0284; in the assay with S. aureus Newman, -0.0844; with S. pneumoniae D39V, -0.0729.

`CC[C@H]1OC(=O)[C@H](C)[C@@H](O[C@H]2C[C@@](C)(OC)[C@@H](O)[C@H](C)O2)[C@H](C)[C@@H](O[C@@H]2O[C@H](C)C[C@H](N(C)C)[C@H]2O)[C@](C)(OC)C[C@@H](C)C(=O)[C@H](C)[C@@H](O)[C@]1(C)O` [Clarithromycin] + CO[C@@H]1[C@@H](OC(N)=O)[C@@H](O)[C@H](Oc2ccc3c(O)c(NC(=O)c4ccc(O)c(CC=C(C)C)c4)c(=O)oc3c2C)OC1(C)C [Novobiocin]: the Bliss interaction score in the assay with B. subtilis 168 was 0.125; in the assay with S. aureus DSM 20231 it was -0.0522; with S. aureus Newman, 0.0643; in the assay on S. pneumoniae D39V, -0.0569.

Consider `CC(=O)OC[C@H]1O[C@@H]([S-])[C@H](OC(C)=O)[C@@H](OC(C)=O)[C@@H]1OC(C)=O.CCP(CC)CC.[Au+]` [Auranofin] + COc1cccc2c1C(=O)c1c(O)c3c(c(O)c1C2=O)C[C@@](O)(C(=O)CO)C[C@@H]3O[C@H]1C[C@H](N)[C@H](O)[C@H](C)O1 [Doxorubicin], for which the Bliss interaction score in the assay on B. subtilis 168 is 0.0674; in the assay on S. aureus DSM 20231, -0.0288; with S. aureus Newman, 0.112; in the assay with S. pneumoniae D39V it was -0.0943.

As for `N[C@@H]1CONC1=O` [CycloserineD] + CC[C@H]1OC(=O)[C@H](C)C(=O)[C@H](C)[C@@H](O[C@@H]2O[C@H](C)C[C@H](N(C)C)[C@H]2O)[C@](C)(OC)C[C@@H](C)C(=O)[C@H](C)[C@H]2N(CCCCn3cnc(-c4cccnc4)c3)C(=O)O[C@]12C [Telithromycin], the Bliss interaction score with B. subtilis 168 amounted to 0.0974; in the assay with S. aureus DSM 20231 it was 0.116; with S. aureus Newman it was 0.0514; in the assay on S. pneumoniae D39V, 0.0906.

`O=C(N[C@H](CO)[C@H](O)c1ccc([N+](=O)[O-])cc1)C(Cl)Cl` [Chloramphenicol] + CC1(C)S[C@@H]2[C@H](NC(=O)Cc3ccccc3)C(=O)N2[C@H]1C(=O)O [PenicillinG]: the Bliss interaction score was 0.0719 in the assay with B. subtilis 168, 0.0631 in the assay with S. aureus DSM 20231, -0.0428 with S. aureus Newman and -0.0461 with S. pneumoniae D39V.

As for `N[C@@H]1CONC1=O` [CycloserineD] + CC(=O)NC[C@H]1CN(c2ccc(N3CCOCC3)c(F)c2)C(=O)O1 [Linezolid], the Bliss interaction score in the assay on B. subtilis 168 was -0.0639; in the assay with S. aureus DSM 20231, -0.125; in the assay with S. aureus Newman, 0.06; with S. pneumoniae D39V, 0.146.

Regarding `CC(=O)OC[C@H]1O[C@@H]([S-])[C@H](OC(C)=O)[C@@H](OC(C)=O)[C@@H]1OC(C)=O.CCP(CC)CC.[Au+]` [Auranofin] + CC[C@H]1OC(=O)[C@H](C)[C@@H](O[C@H]2C[C@@](C)(OC)[C@@H](O)[C@H](C)O2)[C@H](C)[C@@H](O[C@@H]2O[C@H](C)C[C@H](N(C)C)[C@H]2O)[C@](C)(OC)C[C@@H](C)C(=O)[C@H](C)[C@@H](O)[C@]1(C)O [Clarithromycin], the Bliss interaction score in the assay on B. subtilis 168 was determined as 0.0346; in the assay on S. aureus DSM 20231, 0.0219; in the assay on S. aureus Newman it was 0.0636; in the assay on S. pneumoniae D39V, 0.039.

In the case of `N[C@@H]1CONC1=O` [CycloserineD] + CN[C@@H]1[C@H](O)[C@H](NC)[C@H]2O[C@@]3(O)C(=O)C[C@@H](C)O[C@H]3O[C@@H]2[C@H]1O [Spectinomycin], the Bliss interaction score was -0.034 with B. subtilis 168, 0.0625 in the assay on S. aureus DSM 20231, 0.0506 in the assay with S. aureus Newman and 0.11 in the assay on S. pneumoniae D39V.

As for `CC(=O)OC[C@H]1O[C@@H]([S-])[C@H](OC(C)=O)[C@@H](OC(C)=O)[C@@H]1OC(C)=O.CCP(CC)CC.[Au+]` [Auranofin] + COc1ccc(C[C@H](N)C(=O)N[C@H]2[C@@H](O)[C@H](n3cnc4c(N(C)C)ncnc43)O[C@@H]2CO)cc1 [Puromycin], the Bliss interaction score is -0.0523 in the assay on B. subtilis 168, -0.0538 in the assay with S. aureus DSM 20231, -0.0752 in the assay with S. aureus Newman and -0.103 in the assay on S. pneumoniae D39V.

Values taken from the supplement of paper PMC10627819.
